Test results reported in ChEMBL document CHEMBL4390699, “Design, synthesis and biological evaluation of novel antitumor spirodihydrothiopyran-oxindole derivatives” (Bioorg Med Chem Lett, 2019).
pIC50, pKi: −log10 of the molar value.

Columns and labels:
MCF7 [1] = assay: Antiproliferative activity against human MCF7 cells assessed as inhibition of cell growth at 10 uM measured after 24 hrs by CCK8 assay relative to control; assay type: functional; details: MCF7, 24 h, read-out: GI
A549 [2] = assay: Antiproliferative activity against human A549 cells measured after 24 hrs by CCK8 assay; assay type: functional, cell-based; details: A549, 24 h
A549 [3] = assay: Antiproliferative activity against human A549 cells assessed as inhibition of cell growth at 10 uM measured after 24 hrs by CCK8 assay relative to control; assay type: functional; details: A549, 24 h, read-out: GI
HCT-116 [4] = assay: Antiproliferative activity against human HCT116 cells assessed as inhibition of cell growth at 10 uM measured after 24 hrs by CCK8 assay relative to control; assay type: functional; details: HCT-116, 24 h, read-out: GI
MCF7 [5] = assay: Antiproliferative activity against human MCF7 cells measured after 24 hrs by CCK8 assay; assay type: functional, cell-based; details: MCF7, 24 h
HCT-116 [6] = assay: Antiproliferative activity against human HCT116 cells measured after 24 hrs by CCK8 assay; assay type: functional, cell-based; details: HCT-116, 24 h
[7] = molecular target: E3 ubiquitin-protein ligase Mdm2 (Homo sapiens, UniProt Q00987); assay: Inhibition of PMDM6-F probe binding to MDM2 (1 to 118 residues) (unknown origin) preincubated for 30 mins followed by PMDM6-F addition and measured after 1 hr fluorescence polarization assay
Sequence of E3 ubiquitin-protein ligase Mdm2 (Q00987 whole entry, the tested form may be a part): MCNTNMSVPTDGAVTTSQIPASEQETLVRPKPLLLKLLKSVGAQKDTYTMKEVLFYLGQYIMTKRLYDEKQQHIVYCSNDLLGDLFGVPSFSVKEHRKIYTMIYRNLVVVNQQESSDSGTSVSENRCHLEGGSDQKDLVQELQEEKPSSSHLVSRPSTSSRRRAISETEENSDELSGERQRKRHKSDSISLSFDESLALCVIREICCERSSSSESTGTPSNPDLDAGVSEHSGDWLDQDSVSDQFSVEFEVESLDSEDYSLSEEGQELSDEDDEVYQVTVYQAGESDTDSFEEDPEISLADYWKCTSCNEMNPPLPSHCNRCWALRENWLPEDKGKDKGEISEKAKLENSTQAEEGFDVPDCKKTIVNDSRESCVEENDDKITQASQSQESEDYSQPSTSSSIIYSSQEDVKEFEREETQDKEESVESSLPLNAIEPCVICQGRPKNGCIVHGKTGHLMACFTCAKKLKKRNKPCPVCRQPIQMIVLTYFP

A549 [8] = assay: Cell cycle arrest in human A549 cells assessed as decrease in accumulation at S-phase measured after 24 hrs by DNA-staining solution based flow cytometry; assay type: functional
A549 [9] = assay: Cell cycle arrest in human A549 cells assessed as increase in accumulation at G0/G1-phase measured after 24 hrs by DNA-staining solution based flow cytometry; assay type: functional
A549 [10] = assay: cells; details: Homo sapiens, A549, 48 h, read-out: Activity
Description: Induction of apoptosis in human A549 cells assessed as viable cells at 5 uM measured after 48 hrs by annexin V-FITC/propidium iodide staining based flow cytometry (Rvb = 92.9%)

A549 [11] = assay: cells; details: Homo sapiens, A549, 48 h, read-out: Activity; remark: listed apart in the source
Description: Induction of apoptosis in human A549 cells assessed as viable cells at 10 uM measured after 48 hrs by annexin V-FITC/propidium iodide staining based flow cytometry (Rvb = 92.9%)

HUVEC = assay: Cytotoxicity against HUVEC measured after 24 hrs by CCK8 assay; assay type: cell-based; details: Homo sapiens
A549 [12] = assay: Cell cycle arrest in human A549 cells assessed as decrease in accumulation at G2/M-phase measured after 24 hrs by DNA-staining solution based flow cytometry; assay type: functional

Structure (SMILES) | inhibition of growth at 10 µM (MCF7 [1]) [%] | pIC50 (A549 [2]) | inhibition of growth at 10 µM (A549 [3]) [%] | inhibition of growth at 10 µM (HCT-116 [4]) [%] | pIC50 (MCF7 [5]) | pIC50 (HCT-116 [6]) | pKi [7] | Activity (A549 [8]) | Activity (A549 [9]) | viability at 5 µM (A549 [10]) [%] | viability at 10 µM (A549 [11]) [%] | pIC50 (HUVEC) | Activity (A549 [12])
COc1ccc(C(=O)C2=CC[C@@H](c3ccc([N+](=O)[O-])cc3)[C@@]3(S2)C(=O)Nc2cccc(Br)c23)cc1 | 28.1 | 4.86 | 73.9 | 48.1 |  |  |  |  |  |  |  |  | 
O=C(C1=CC[C@@H](c2ccccc2)[C@@]2(S1)C(=O)Nc1cccc(Br)c12)c1ccccc1 | 24.3 | 5.51 | 78.5 | 45 |  |  |  |  |  |  |  |  | 
CC[C@@H]1CC=C(C(=O)c2ccc(OC)cc2)S[C@@]12C(=O)Nc1cccc(Br)c12 | 72.9 | 4.99 | 46.9 | 70.8 | 4.88 |  |  |  |  |  |  |  | 
O=C(C1=CC[C@@H](c2ccccc2)[C@@]2(S1)C(=O)Nc1cc(F)ccc12)c1ccccc1 | 23.9 | 5.21 | 66 | 45.1 |  |  |  |  |  |  |  |  | 
O=C(C1=CC[C@@H](c2ccc(Cl)cc2)[C@@]2(S1)C(=O)Nc1ccccc12)c1ccccc1 | 72.5 | 5.41 | 72.5 | 89.1 | 5.07 | 5.55 |  |  |  |  |  |  | 
O=C(C1=CC[C@@H](c2ccccc2)[C@@]2(S1)C(=O)Nc1cccc(Br)c12)c1ccc(Br)cc1 | 77.7 | 5.48 | 93.1 | 67.3 | 5.09 | 5.59 |  |  |  |  |  |  | 
O=C(C1=CC[C@@H](c2ccc(Br)cc2)[C@@]2(S1)C(=O)Nc1cccc(Br)c12)c1ccccc1 | 52.7 | 5.82 | 88.1 | 86 | 5.06 | 5.23 |  |  |  |  |  |  | 
O=C(C1=CC[C@@H](c2ccccc2)[C@@]2(S1)C(=O)Nc1cccc(Br)c12)c1ccco1 | 92.8 | 5.35 | 87.1 | 92.1 | 5.32 | 5.72 | 4.36 |  |  |  |  |  | 
O=C(C1=CC[C@@H](c2ccccc2)[C@@]2(S1)C(=O)Nc1cc(Br)ccc12)c1ccccc1 | 54.5 | 5.32 | 67.6 | 80 | 5.00 | 5.02 |  |  |  |  |  |  | 
O=C(C1=CC[C@@H](c2ccc(F)cc2)[C@@]2(S1)C(=O)Nc1cccc(Br)c12)c1ccccc1 | 21.9 | 5.31 | 84.4 | 44.1 |  |  |  |  |  |  |  |  | 
O=C(C1=CC[C@@H](c2ccccc2)[C@@]2(S1)C(=O)Nc1cccc(Cl)c12)c1ccccc1 | 43.9 | 5.00 | 65.4 | 48.8 |  | 5.00 |  |  |  |  |  |  | 
COc1ccc(C2=N[C@H](c3ccc(Cl)cc3)[C@H](c3ccc(Cl)cc3)N2C(=O)N2CCNC(=O)C2)c(OC(C)C)c1 | 32.8 | 5.62 | 47 | 64.4 | 4.92 |  |  | Dose-dependent effect | Dose-dependent effect | 45.9 | 44.1 |  | 
COc1ccc(C(=O)C2=CC[C@@H](c3ccc(Br)cc3)[C@@]3(S2)C(=O)Nc2cccc(Br)c23)cc1 | 18.5 |  | 19 | 10.8 |  |  |  |  |  |  |  |  | 
O=C(C1=CC[C@@H](c2ccc(F)cc2)[C@@]2(S1)C(=O)Nc1ccccc12)c1ccccc1 | 58.8 | 5.20 | 72.3 | 91.1 | 4.85 | 5.70 |  |  |  |  |  |  | 
COc1ccc(C(=O)C2=CC[C@@H](c3ccc(OC)cc3)[C@@]3(S2)C(=O)Nc2cccc(Br)c23)cc1 | 25.9 |  | 40.9 | 14.3 |  |  |  |  |  |  |  |  | 
O=C(C1=CC[C@@H](c2ccc(Br)cc2)[C@@]2(S1)C(=O)Nc1ccccc12)c1ccccc1 | 69.4 | 5.68 | 75.1 | 91.9 | 5.17 | 5.77 | 4.70 | Dose-dependent effect | Dose-dependent effect | 35.7 | 29 | 5.39 | Dose-dependent effect
O=C(C1=CC[C@@H](c2ccccc2)[C@@]2(S1)C(=O)Nc1ccc(F)cc12)c1ccccc1 | 63.9 | 5.37 | 74.2 | 88.4 | 5.26 | 5.00 |  |  |  |  |  |  | 
CCC[C@@H]1CC=C(C(=O)c2ccc(OC)cc2)S[C@@]12C(=O)Nc1cccc(Br)c12 | 19.8 |  | 44 | 22.7 |  |  |  |  |  |  |  |  | 
COc1ccc(C(=O)C2=CC[C@@H](c3ccccc3)[C@@]3(S2)C(=O)Nc2cccc(Br)c23)cc1 | 36.9 | 5.22 | 74.3 | 68.4 |  | 5.08 |  |  |  |  |  |  | 
O=C(C1=CC[C@@H](c2ccccc2)[C@@]2(S1)C(=O)Nc1ccccc12)c1ccccc1 | 51.7 | 5.20 | 57.6 | 87.6 | 4.97 | 5.03 |  |  |  |  |  |  | 
